Reference: patent US20030207877A1, “Pyridoquinoxaline antivirals” (priority 2001, published 2003)
Several values for one entry are separate records, joined by “and”; a condition that tells them apart may be missing. Equal entries are not always repeated.

Experiments:
[1] = biological target: T1, Alpha Polymerase (Homo sapiens, UniProt P09884); experiment: Alpha polymerase inhibition (selectivity); type: biochemical
T1 sequence (P09884 1-1462): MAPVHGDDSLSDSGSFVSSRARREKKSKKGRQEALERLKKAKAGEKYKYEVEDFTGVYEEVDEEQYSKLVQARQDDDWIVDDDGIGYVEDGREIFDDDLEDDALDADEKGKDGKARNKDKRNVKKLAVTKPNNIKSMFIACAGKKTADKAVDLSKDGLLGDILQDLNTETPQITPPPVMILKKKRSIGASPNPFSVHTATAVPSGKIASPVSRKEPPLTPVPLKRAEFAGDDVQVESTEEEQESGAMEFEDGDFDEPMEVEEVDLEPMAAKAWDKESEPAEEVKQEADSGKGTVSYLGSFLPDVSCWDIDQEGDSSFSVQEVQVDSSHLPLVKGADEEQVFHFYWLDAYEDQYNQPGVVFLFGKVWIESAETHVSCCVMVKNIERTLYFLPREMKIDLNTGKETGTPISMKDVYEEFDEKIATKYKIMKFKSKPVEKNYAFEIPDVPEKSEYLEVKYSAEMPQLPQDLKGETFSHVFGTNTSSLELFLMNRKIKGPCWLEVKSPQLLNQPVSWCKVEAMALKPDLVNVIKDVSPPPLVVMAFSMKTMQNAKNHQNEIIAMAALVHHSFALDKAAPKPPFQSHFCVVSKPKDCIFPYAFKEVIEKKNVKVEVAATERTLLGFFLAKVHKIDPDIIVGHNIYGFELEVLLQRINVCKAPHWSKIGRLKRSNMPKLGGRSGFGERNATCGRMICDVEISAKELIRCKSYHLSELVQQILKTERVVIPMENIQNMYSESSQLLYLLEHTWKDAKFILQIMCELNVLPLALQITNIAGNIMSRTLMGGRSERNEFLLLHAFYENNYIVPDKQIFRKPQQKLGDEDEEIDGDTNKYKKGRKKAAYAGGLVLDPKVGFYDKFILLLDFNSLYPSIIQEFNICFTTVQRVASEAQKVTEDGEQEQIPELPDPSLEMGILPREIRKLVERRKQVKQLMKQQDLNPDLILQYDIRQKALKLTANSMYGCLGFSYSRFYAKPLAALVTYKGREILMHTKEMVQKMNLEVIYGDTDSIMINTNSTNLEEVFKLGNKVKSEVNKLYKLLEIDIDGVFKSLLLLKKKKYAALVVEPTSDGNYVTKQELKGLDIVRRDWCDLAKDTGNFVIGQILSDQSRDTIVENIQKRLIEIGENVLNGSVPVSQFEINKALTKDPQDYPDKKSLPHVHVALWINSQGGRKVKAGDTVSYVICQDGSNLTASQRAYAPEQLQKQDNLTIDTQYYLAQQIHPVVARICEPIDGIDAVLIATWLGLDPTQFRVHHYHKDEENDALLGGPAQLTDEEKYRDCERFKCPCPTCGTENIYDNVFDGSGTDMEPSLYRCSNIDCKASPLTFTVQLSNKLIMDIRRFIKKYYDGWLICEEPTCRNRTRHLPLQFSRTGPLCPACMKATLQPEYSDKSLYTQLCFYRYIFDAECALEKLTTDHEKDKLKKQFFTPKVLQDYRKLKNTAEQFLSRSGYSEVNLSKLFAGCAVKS

[2] = biological target: T2, HCMV polymerase (Human cytomegalovirus, UniProt P08546); experiment: HCMV polymerase assay (scintillation proximity assay), original and modified version; type: biochemical; settings: SPA; several values per example = repeat determinations, assay version not given; read-out: CMV Polymerase IC50
T2 construct: made in house; host or cells: SF-9 insect cells infected with recombinant baculovirus
Description: The HCMV polymerase assay is performed using a scintillation proximity assay (SPA) as described in several references, such as N.D. Cook, et al., Pharmaceutical Manufacturing International, pages 49-53 (1992); K. Takeuchi, Laboratory Practice, September issue (1992); U.S. Pat. No. 4,568,649 (1986); which are incorporated by reference herein. Reactions are performed in 96-well plates. The assay is conducted in 100 μl volume with 5.4 mM HEPES (pH 7.5), 11.7 MM KCl, 4.5 mM MgCl2, 0.36 mg/ml BSA, and 90 nM ^3H-dTTP. Assays are run with and without CHAPS, (3-[(3-Cholamidopropyl)-dimethylammoniol-1-propane-sulfonate) at a final concentration of 2 mM. HCMV polymerase is diluted in enzyme dilution buffer containing 50% glycerol, 250 mM NaCl, 10 mM HEPES (pH 7.5), 100 μg/ml BSA, and 0.01% sodium azide. The HCMV polymerase, which is expressed in recombinant baculovirus-infected SF-9 cells and purified according to literature procedures, is added at 10% (or 10 μl) of the final reaction volume, i.e., 100 μl. Compounds are diluted in 50% DMSO and 10 μl are added to each well. Control wells contain an equivalent concentration of DMSO. Unless noted otherwise, reactions are initiated via the addition of 6 nM biotinylated poly(dA)-oligo(dT) template/primer to reaction mixtures containing the enzyme, substrate, and compounds of interest. Plates are incubated in a 25° C. or 37° C. H2O bath and terminated via the addition of 40 μl/reaction of 0.5 M EDTA (pH 8) per well. Reactions are terminated within the time-frame during which substrate incorporation is linear and varied depending upon the enzyme and conditions used, i.e., 30 min. for HCMV polymerase. Ten (10) μl of streptavidin-SPA beads (20 mg/ml in PBS/10% glycerol) are added following termination of the reaction. Plates are incubated 10 min. at 37° C., then equilibrated to room temperature, and counted on a Packard Topcount. Linear regressions are performed and IC50's are calculated using computer software.
A modified version of the above HCMV polymerase assay is performed as described above, but with the following changes: Compounds are diluted in 100% DMSO until final dilution into assay buffer. In the previous assay, compounds are diluted in 50% DMSO. 4.5 mM dithiotherotol (DTT) is added to the polymerase buffer.

T2 sequence (P08546 whole entry): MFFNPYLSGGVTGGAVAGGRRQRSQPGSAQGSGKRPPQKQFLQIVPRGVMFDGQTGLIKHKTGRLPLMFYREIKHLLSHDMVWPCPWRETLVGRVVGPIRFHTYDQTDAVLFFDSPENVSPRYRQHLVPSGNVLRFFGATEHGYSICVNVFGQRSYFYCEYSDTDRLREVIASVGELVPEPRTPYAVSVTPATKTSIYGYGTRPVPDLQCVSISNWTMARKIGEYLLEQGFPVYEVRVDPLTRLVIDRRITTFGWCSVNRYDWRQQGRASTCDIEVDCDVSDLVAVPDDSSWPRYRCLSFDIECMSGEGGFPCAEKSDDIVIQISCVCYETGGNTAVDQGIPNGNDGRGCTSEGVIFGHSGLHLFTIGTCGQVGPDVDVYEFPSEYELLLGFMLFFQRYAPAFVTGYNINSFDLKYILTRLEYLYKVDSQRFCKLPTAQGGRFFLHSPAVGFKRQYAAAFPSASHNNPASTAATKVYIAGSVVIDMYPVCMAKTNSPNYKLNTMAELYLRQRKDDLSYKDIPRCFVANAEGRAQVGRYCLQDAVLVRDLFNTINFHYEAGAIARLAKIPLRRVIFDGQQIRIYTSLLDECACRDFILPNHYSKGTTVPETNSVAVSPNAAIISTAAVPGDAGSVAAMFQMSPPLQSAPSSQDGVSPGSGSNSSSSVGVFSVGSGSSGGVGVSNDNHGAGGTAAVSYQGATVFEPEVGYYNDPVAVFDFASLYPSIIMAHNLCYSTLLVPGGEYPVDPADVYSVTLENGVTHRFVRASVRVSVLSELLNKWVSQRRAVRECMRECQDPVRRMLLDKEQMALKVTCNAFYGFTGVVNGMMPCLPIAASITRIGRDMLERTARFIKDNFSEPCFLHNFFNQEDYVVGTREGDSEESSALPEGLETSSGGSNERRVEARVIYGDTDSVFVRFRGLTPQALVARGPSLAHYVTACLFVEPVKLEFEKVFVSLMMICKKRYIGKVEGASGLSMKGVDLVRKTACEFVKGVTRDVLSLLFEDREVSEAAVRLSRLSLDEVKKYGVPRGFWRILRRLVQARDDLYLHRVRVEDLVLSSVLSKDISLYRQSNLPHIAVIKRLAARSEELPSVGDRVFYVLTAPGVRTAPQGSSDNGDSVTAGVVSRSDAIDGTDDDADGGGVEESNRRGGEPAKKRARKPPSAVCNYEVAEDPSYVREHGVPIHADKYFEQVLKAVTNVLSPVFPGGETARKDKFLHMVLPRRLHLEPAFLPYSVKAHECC

Row | Structure (SMILES) | IC50 [1] | IC50 [2] | melting point
1 | CN(Cc1cc2c3c(c1)c(=O)c(C(=O)NCc1ccc(Cl)cc1)cn3CC(=O)N2C)CC(O)c1ccc2ccccc2n1 (racemic) [Example 16, rac N-(4-chlorobenzyl)-9-{([2-hydroxy-2-quinolin-2-ylethyl](methyl)amino)methyl 1-1-methyl-2,7-dioxo-2,3-dihydro-1H,7H-pyrido[1,2,3-de]quinoxaline-6-carboxamide] | > 20000 nM | 48 nM and 36 nM | 173 to 177 °C
2 | CN(Cc1cc2c3c(c1)c(=O)c(C(=O)NCc1ccc(Cl)cc1)cn3CC(=O)N2C)C[C@@H](O)c1ccco1 [Example 11, N-(4-chlorobenzyl)-9-{[[(2R)-2-(2-furyl)-2-hydroxyethyl](methyl)amino]methyl}-1-methyl-2,7-dioxo-2,3-dihydro-1H,7H-pyrido[1,2,3-de]quinoxaline-6-carboxamide] | > 20000 nM | 110 nM and 46 nM | 119 to 120 °C
3 | CN(Cc1cc2c3c(c1)c(=O)c(C(=O)NCc1ccc(Cl)cc1)cn3CC(=O)N2C)C[C@@H](O)c1cccnc1 [Example 13, N-(4-chlorobenzyl)-9-{[[(2S)-2-hydroxy-2-pyridin-3-ylethyl](methyl)amino]methyl}-1-methyl-2,7-dioxo-2,3-dihydro-1H,7H-pyrido[1,2,3-de]quinoxaline-6-carboxamide] | > 20000 nM | 150 nM and 76 nM | 131 to 135 °C

Results, then the compound that gave them:

Row | IC50 [1] | IC50 [2] | melting point | Structure (SMILES)
4 | 4390 nM | 32 nM | 161 to 163 °C | CN(Cc1cc2c3c(c1)c(=O)c(C(=O)NCc1ccc(F)cc1)cn3CC(=O)N2C)CC(O)c1cc2ccccc2o1 (racemic) [Example 33, rac 9-{[[2-(1-benzofuran-2-yl)-2-hydroxyethyl](methyl)amino]methyl}-N-(4-fluorobenzyl)-1-methyl-2,7-dioxo-2,3-dihydro-1H,7H-pyrido[1,2,3-de]quinoxaline-6-carboxamide]
5 | > 10000 nM | 160 nM and 120 nM | 97 to 98 °C | CN(Cc1cc2c3c(c1)c(=O)c(C(=O)NCc1ccc(Cl)cc1)cn3CC(=O)N2C)C[C@@H](O)c1cnccn1 [Example 21, N-(4-chlorobenzyl)-9-{[[(2R)-2-hydroxy-2-pyrazin-2-ylethyl](methyl)amino]methyl}-1-methyl-2,7-dioxo-2,3-dihydro-1H,7H-pyrido[1,2,3-de]quinoxaline-6-carboxamide]
